Key:
[1] = system: Human Breast Adenocarcinoma Cell Line MDA-MB-231; assay: Drug cytotoxicity testing (viable cell count, trypan blue exclusion) in MDA-MB-231 cultures; format: cell-based; conditions: for Tumor Cell Number: compound or drug alone 10^−7 mol/L (100 nM), medium with 5% FBS
Protocol: MDA-MB-231 cells were propagated in MEM culture medium with 2 mM L-glutamine, 10% heat-inactivated fetal bovine serum (FBS) and antibiotics. DU 145 cells were cultured in MEM culture medium containing 2 mM L-glutamine, 1 mM sodium pyruvate, 10% FBS and antibiotics. SKOV-3 cells were cultured in McCoy's 5A culture medium, supplemented with 1,5 mM L-glutamine, 10% FBS and antibiotics. A549 cells were cultured in Ham's F-12 culture medium with 1 mM L-glutamine, 10% FBS and antibiotics.
The cell cultures in cultivation plates were allowed to adhere for 24 hour of incubation. […] The cells were incubated for 2 consecutive days. At the end of the incubation period adherent cells were detached by trypsinization and the number of viable cells was counted using trypan blue exclusion test and a hemocytometer. All data were derived from an average of three determinations each in six replicates. The results were expressed as mean cell number±SE and the differences between control and test series evaluated by means of Student's t-test. The drug cytotoxicity was evaluated based on the extent of cell growth inhibition.
Therefore an average of negative controls was calculated. […] Therefore an average of positive controls was calculated (for each antibiotic).

[2] = system: rats; conditions: rat, in vivo, ip, 100 mg/kg
Protocol: A single dose i.p. toxicity study in rats was carried out. […] The minimal lethal dose is thus above 100 mg/kg body weight for these compounds.

SMILES	Tumor Cell Number [1]	mortality [2]	further results
CC1=C(/C=C/C(C)=C/C=C/C(C)=C\C(=O)N[C@@H](CS(=O)(=O)O)C(=O)OC(C)C)C(C)(C)CCC1 [II-1c]	29.0 ± 1.26 × 10^3	–	–
CC1=C(/C=C/C(C)=C/C=C/C(C)=C\C(=O)N[C@@H](CCS(=O)(=O)O)C(=O)O)C(C)(C)CCC1 [II-3, N-(13-cis-Retinoyl)-L-homocysteic acid]	–	did not produce mortality	–
CCCCOC(=O)[C@H](CS(=O)(=O)O)NC(=O)\C=C(C)/C=C/C=C(C)/C=C/C1=C(C)CCCC1(C)C [II-1e]	(26.0 ± 1.27) × 10^3, cell growth inhibition	–	–
CC1=C(/C=C/C(C)=C/C=C/C(C)=C/C(=O)N[C@@H](CS(=O)O)C(=O)O)C(C)(C)CCC1 (stereo in doubt) [I-2, N-(all-trans-Retinoyl)-L-cysteinesulfinic acid]	–	did not produce mortality	–
CC1=C(/C=C/C(C)=C/C=C/C(C)=C/C(=O)N[C@@H](CS(=O)(=O)O)C(=O)O)C(C)(C)CCC1 [I-1, N-(all-trans-Retinoyl)-L-cysteic acid]	–	did not produce mortality	–
COC(=O)[C@H](CCS(=O)(=O)O)NC(=O)/C=C(C)/C=C/C=C(C)/C=C/C1=C(C)CCCC1(C)C [I-3a]	–	–	cell growth inhibition achieved when increasing the concentration ([1]; compound (sodium salt) alone, concentration range 10^−9 to 10^−7 M, listed as II-3a): ~49%

Source: US7030158B2, “Therapeutic compounds” (Ardenia Investments Ltd., priority 2002, dated 2006)
